Among the data in ChEMBL document CHEMBL1122067, “Species- or isozyme-specific enzyme inhibitors. 4. Design of a two-site inhibitor of adenylate kinase with isozyme selectivity” (J Med Chem, 1982) are Vmax and Km values, retold here.

Series [1] is described as follows: Inhibitory constant of rat adenylate kinase (AK) isozymes expressed as relative maximal velocity.
Series [2] has as its system O=C(CI)NCCCCCNc1ncnc2c1ncn2C1O[C@H](COP(=O)(O)OP(=O)(O)OP(=O)(O)O)[C@@H](O)[C@H]1O. The series is described as follows: (§1) Inhibitory constant of rat adenylate kinase (AK II) isozymes expressed as relative maximal velocity.
Series [3] has as its system CC(=O)NCCCCCCCCNc1ncnc2c1ncn2C1O[C@H](COP(=O)(O)O)[C@@H](O)[C@H]1O. Described as §1.
Series [4] relates to CCSc1nc2c(N)ncnc2n1[C@@H]1O[C@H](COP(=O)(O)O)[C@@H](O)[C@H]1O. The series is described as §1.
The test system of series [5] is CC(=O)NCCNc1ncnc2c1ncn2C1O[C@H](COP(=O)(O)O)[C@@H](O)[C@H]1O. Described as §1.
Series [6] deals with Nc1ncnc2c1ncn2[C@@H]1O[C@H](COP(=O)(O)O)[C@@H](O)[C@H]1O. The description is as §1.
The subject of series [7] is CCCCNc1ncnc2c1ncn2C1O[C@H](COP(=O)(O)OP(=O)(O)OP(=O)(O)O)[C@@H](O)[C@H]1O. Described as §1.
Series [8] concerns O=C(CI)NCCCCCNc1ncnc2c1ncn2C1O[C@H](COP(=O)(O)OP(=O)(O)OP(=O)(O)O)[C@@H](O)[C@H]1O. The series is described as follows: (§2) Concentration for half-maximal velocity for adenylate kinase (AK II) was determined.
Series [9] concerns Nc1ncnc2c1ncn2[C@@H]1O[C@H](COP(=O)(O)O)[C@@H](O)[C@H]1O. The description is as §2.
The subject of series [10] is CCCCNc1ncnc2c1ncn2C1O[C@H](COP(=O)(O)OP(=O)(O)OP(=O)(O)O)[C@@H](O)[C@H]1O. Described as §2.
Series [11] in a line: Concentration for half-maximal velocity for adenylate kinase (AK) was determined.
A short description of series [12]: Inhibitory constant of rat adenylate kinase(AK) isozymes and maximal velocity was determined.

As to `CCCSc1nc2c(N)ncnc2n1[C@@H]1O[C@H](COP(=O)(O)OP(=O)(O)OP(=O)(O)O)[C@@H](O)[C@H]1O`, the Vmax in [1] came out at 0%.

The Km is the concentration of substrate that gives half-maximal velocity. Turning to “Adenylate kinase 2, mitochondrial (Rattus norvegicus) (from UniProt P29410)”, the Vmax was determined as 21% in series [2]; 0% in series [3]; 0% in [4]; 0% in [5]; 100% in series [6]; 13% in [7]. In addition, the figures for the Km in [8], in series [9] and in [10] were 1000 µM, 90 µM and 1400 µM, respectively.

Turning to `Nc1ncnc2c1nc(Sc1ccccc1)n2[C@@H]1O[C@H](COP(=O)(O)OP(=O)(O)OP(=O)(O)O)[C@@H](O)[C@H]1O`, in series [1], the Vmax stood at 0%.

Turning to `CCCCNc1ncnc2c1ncn2C1O[C@H](COP(=O)(O)OP(=O)(O)OP(=O)(O)O)[C@@H](O)[C@H]1O` (stereo partly specified), the Vmax in series [1] turned out to be 86%. Moreover, in series [11], the Michaelis-Menten constant (Km) was determined as 2800 µM.

As for `CC(=O)NCCNc1ncnc2c1ncn2C1O[C@H](COP(=O)(O)O)[C@@H](O)[C@H]1O` (stereo partly specified), the Vmax in series [12] came out at 0%.

In the case of `Nc1ncnc2c1ncn2[C@@H]1O[C@H](COP(=O)(O)OP(=O)(O)OP(=O)(O)O)[C@@H](O)[C@H]1O`, in series [1], the Vmax amounted to 100%. In addition, the Km in series [11] came to 570 µM.

Take `O=C(CI)NCCCCCNc1ncnc2c1ncn2C1O[C@H](COP(=O)(O)OP(=O)(O)OP(=O)(O)O)[C@@H](O)[C@H]1O` (stereo partly specified): the Vmax in series [1] came to 0%.

In the case of `CC(=O)NCCCCCCCCNc1ncnc2c1ncn2C1O[C@H](COP(=O)(O)O)[C@@H](O)[C@H]1O` (stereo partly specified), in [1], the Vmax turned out to be 0%.

For `CCCCN(CCCC)c1ncnc2c1ncn2C1O[C@H](COP(=O)(O)OP(=O)(O)OP(=O)(O)O)[C@@H](O)[C@H]1O` (stereo partly specified), in series [1], the Vmax is 0%.

In the case of `CCCCSc1ncnc2c1ncn2C1O[C@H](COP(=O)(O)OP(=O)(O)OP(=O)(O)O)[C@@H](O)[C@H]1O` (stereo partly specified), the Vmax in series [1] amounted to 192%. Further, the Km in series [11] came to 4000 µM.
